This passage reports melting point results from patent US6451797B1, “Muscarinic antagonists” (priority 1998, dated 2002).

Structures can show the parent of a compound that is named as a salt.

`C[C@@H]1CN(C2CCN(C(=O)c3cccc4c(F)cc(F)cc34)CC2)CCN1[C@@H](C)c1ccc(S(=O)(=O)c2ccc3c(c2)OCO3)nc1` showed a melting point of 172 to 174 °C. Next, `C[C@@H]1CN(C2CCN(C(=O)c3cccc(Cl)c3N)CC2)CCN1[C@@H](C)c1ccc(S(=O)(=O)c2ccc3c(c2)OCO3)nc1`: 184 to 186 °C; `C[C@@H]1CN(C2CCN(C(=O)c3ccccc3N)CC2)CCN1[C@@H](C)c1ccc(S(=O)(=O)c2ccc3c(c2)OCO3)nc1`: 187 to 188 °C; `C[C@@H]1CN(C2CCN(C(=O)c3cccc4cccnc34)CC2)CCN1[C@@H](C)c1ccc(S(=O)(=O)c2ccc3c(c2)OCO3)nc1`: 174 °C. Compound `Cc1cccc(C)c1C(=O)N1CCC(N2CCN([C@@H](C)c3ccc(S(=O)(=O)c4ccc5c(c4)OCO5)nc3)[C@H](C)C2)CC1` displayed a melting point of 165 °C.

As for `CNc1ccccc1C(=O)N1CCC(N2CCN(Cc3ccc(S(=O)(=O)c4cccc(C)c4)nc3)[C@H](C)C2)CC1` (as salt: HCl), the melting point is 144 to 148 °C (dec.).
